Assay: Skin absorption after topical application to a hand, disappearance of red color
Format: in vivo, human

Time until absorbed in skin tissue (red color disappeared): 1 to 2 h
SMILES: CO[C@H]1/C=C/O[C@@]2(C)Oc3c(C)c(O)c4c(O)c(c(/C=N/N5CCN(C)CC5)c(O)c4c3C2=O)NC(=O)/C(C)=C\C=C\[C@H](C)[C@H](O)[C@@H](C)[C@@H](O)[C@@H](C)[C@H](OC(C)=O)[C@@H]1C [rifampicin]

From patent US10709702B2, “Treatment of skin disorders by topical administration of VEGF inhibitors” (AMD THERAPEUTICS LLC, priority 2015, dated 2020)
